Measurements reported in patent US20240140895A1, “NOVEL AROMATIC MOLECULES” (XENIOPRO GmbH, priority 2018, published 2024).

Test system: 23132/87 cells (human gastric adenocarcinoma cells)
Assay: Proliferation assay (alamarBlue) with 23132/87 cells
Format: cell-based
Details: read-out: Activity Range: weighted arithmetic mean (AVEw) of normalized fluorescence intensity relative to DMSO basis level 1.0
Source text: The antiproliferative activities of compounds falling under formula (Ia), (Tb) and (Ic), respectively, were investigated on cells or cell lines originating from a disorder of the haematopoietic system, including the myeloid cell compartment and the lymphoid cell compartment (T-cells and B-cells), the neuroendocrine system, the cervix, the breast, the ovaries, the lung, the gastrointestinal tract, and the mucosal epithelium, as well as from the skin epithelium and from the muscle. To this end, HL-60 cells, NB-4 cells, HH cells, RPMI-8402 cells, TANOUE cells, TT cells, HeLa cells, MDA-MB-231 cells, FU-OV-1 cells, LOU-NH91 cells, 23132/87 cells, CAL-27 cells, BHY cells, SCC-25 cells, A-431 cells, human primary epidermal keratinocytes (HPEK), and C2C12 cells were seeded into 96-well plates suitable for fluorescence assays (CORNING #3598) at following initial cell numbers: 1000 cells per well for HL-60; 1000 cells per well for NB-4; 5000 cells per well for HH; 5000 cells per well for RPMI-8402; 1500 cells per well for TANOUE; 9000 cells per well for TT; 2000 cells per well for HeLa; 3000 cells per well for MDA-MB-231; 3000 cells per well for FU-OV-1; 4000 cells per well for LOU-NH91; 2000 cells per well for 23132/87; 2000 cells per well for CAL-27; 1500 cells per well for BHY; 1500 cells per well for SCC-25; 700 cells per well for A-431; 1000 cells per well for HPEK; 500 cells per well for C2-C12. The cells were treated with compounds at indicated final concentrations (diluted from the 1000× stock-solutions in DMSO to a final DMSO concentration of 0.1% v/v in H2O (Water For Injection, WFI, Fisherscientific #10378939)) or with the empty carrier DMSO at 0.1% v/v as control for 5 days. At day 5 after starting the treatments the cells were subjected to the alamarBlue® Proliferation Assay (Bio-Rad Serotec GmbH, BUF012B) according to the protocol of the manufacturer. The readout was taken with a multi-well plate-reader in the fluorescence mode with applying a filter for excitation at 560 nm (band width 10 nm) and for emission at 590 nm (band width 10 nm). Control treatments for growth inhibition with commercial compounds such as Methotrexate (MTREX) and Resveratrol (RES) were included on every plate. Some of the test compounds of the present invention were obtained and applied as their salts. According cases are indicated in the column “Specification” in Table 30 to Table 62 and by their sum formula in Table 63.
The assays were performed in duplicate or more replicates of independent single experiments each containing a six-fold replicate for every condition. For every individual plate, the measured fluorescence intensity values of the conditions with compound treatment were normalized against the corresponding equally weighted arithmetic mean of the fluorescence intensity values of the six DMSO treated control wells in order to obtain the relative values to a baseline level of 1.0.
Two independent outlier analyses were performed according to the methods by Peirce and Chauvenet (Ross, Journal of Engineering Technology 2003, 1-12). Outliers confirmed by at least one of the methods were excluded from the calculations but not more than one value out of six per compound within a single experiment. The weighted arithmetic mean (here abbreviated as AVEw) for each compound was calculated from the normalized values over all independent replicates of the single experiments comprising the six replicates each. The corresponding standard deviation for the weighted arithmetic mean was calculated according to the method described by Bronstein et al. (Bronstein, Semendjajew, Musiol, Muhlig, Taschenbuch der Mathematik, 5th edition 2001 (German), publisher: Verlag Harri Deutsch, Frankfurt am Main and Thun) and was combined with the Gauβ′ error propagation associated with the performed calculation for the normalization. The resulting standard deviation is herein referred to as “combined standard deviation”. […]

Oc1ccc(C=Cc2cc(O)cc(O)c2)cc1 [RES, resveratrol, reference compound]
activity at 20 µM: 50 ± 10%
